Measured values as given in patent US20110301142A1, “ANTAGONISTS OF LYSOPHOSPHATIDIC ACID RECEPTORS” (priority 2008, published 2011).

biological target: T1, human LPA1 (Homo sapiens, UniProt Q92633); assay: LPA1 calcium flux assay (HLPA1 Ca Flux); format: cell-based; details: Human LPA1 expressing CHO cells, stimulated with 10 nM LPA
T1 construct: the full-length cDNA for human LPA1 was obtained by PCR of the reverse transcription reaction; expressed in transfected cells
Procedure: A 1.1 kb cDNA encoding the human LPA1 receptor was cloned from human lung. Human lung RNA (Clontech Laboratories, Inc. USA) was reverse transcribed using the RETROscript kit (Ambion, Inc.) and the full-length cDNA for human LPA1 was obtained by PCR of the reverse transcription reaction. The nucleotide sequence of the cloned human LPA1 was determined by sequencing and confirmed to be identical to the published human LPA1 sequence (An et al. Biochem. Biophys. Res. Commun. 231:619 (1997). The cDNA was cloned into the pcDNAS/FRT expression plasmid and transfected in CHO cells using lipofectamine 2000 (Invitrogen Corp., USA). Clones stably expressing human LPA1 were selected using hygromycin and identified as cells that show Ca-influx in response to LPA.
Human LPA1 or LPA3 expressing CHO cells are seeded at 20,000-45,000 cells per well in a 96-well poly-D-lysine coated plate one or two days before the assay. Prior to the assay, the cells are washed once with PBS and then cultured in serum-free media overnight. On the day of the assay, a calcium indicator dye (Calcium 4, Molecular Devices) in assay buffer (HBSS with Ca^2+ and Mg^2+ and containing 20 mM Hepes and 0.3% fatty-acid free human serum albumin) is added to each well and incubation continued for 1 hour at 37° C. 10 μl of test compounds in 2.5% DMSO are added to the cells and incubation continued at room temperature for 30 minutes. Cells are the stimulated by the addition of 10 nM LPA and intracellular Ca^2+ measured using the Flexstation 3 (Molecular Devices). IC50s are determined using Graphpad prism analysis of drug titration curves.

T1 sequence (Q92633 whole entry): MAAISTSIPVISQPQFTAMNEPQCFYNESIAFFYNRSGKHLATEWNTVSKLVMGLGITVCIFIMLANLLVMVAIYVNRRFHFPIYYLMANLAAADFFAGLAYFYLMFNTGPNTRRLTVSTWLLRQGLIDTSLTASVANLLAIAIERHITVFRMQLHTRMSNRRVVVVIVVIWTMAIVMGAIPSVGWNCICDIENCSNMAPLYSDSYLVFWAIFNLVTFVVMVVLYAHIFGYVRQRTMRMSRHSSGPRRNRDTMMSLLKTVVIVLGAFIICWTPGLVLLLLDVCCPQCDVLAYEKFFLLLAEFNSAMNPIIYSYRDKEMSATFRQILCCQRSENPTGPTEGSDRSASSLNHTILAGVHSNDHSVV

SMILES	IC50 [nM]
Cc1noc(-c2ccc(Cc3cccc(C(=O)O)c3)cc2)c1NC(=O)OCc1ccccc1Br [Compound 1-6, 3-{4-[4-(2-Bromo-benzyloxycarbonylamino)-3-methyl-isoxazol-5-yl]-benzyl}-benzoic acid]	1000 to 50000
Cc1noc(-c2ccc(-c3cccc(C(=O)O)c3)cc2)c1NC(=O)O[C@H](C)c1ccccn1 [Compound 1-11]	1000 to 50000
Cc1cccc(COC(=O)Nc2c(C)noc2-c2ccc(-c3cccc(C(=O)O)c3)cc2)n1 [Compound 1-13, 4′-[3-Methyl-4-(6-methyl-pyridin-2-ylmethoxycarbonylamino)-isoxazol-5-yl]-biphenyl-3-carboxylic acid]	1000 to 50000
Cc1noc(-c2ccc(Cc3cc(C(=O)O)ccc3Cl)cc2)c1NC(=O)OC(C)c1ccccc1Cl (centres unmarked) [Compound 1-14, 4-Chloro-3-(4-{4-[1-(2-chloro-phenyl)-ethoxycarbonylamino]-3-methyl-isoxazol-5-yl}-benzyl)-benzoic acid]	300 to 1000
Cc1noc(-c2ccc(-c3cccc(C(=O)O)c3)cc2)c1NC(=O)OC1CCc2ccccc21 (centres unmarked) [Compound 1-16, 4′-[4-(Indan-1-yloxycarbonylamino)-3-methyl-isoxazol-5-yl]-biphenyl-3-carboxylic acid]	> 50000
Cc1noc(-c2ccc(CSc3cccc(CC(=O)O)c3)cc2)c1NC(=O)OC(C)c1ccccc1Cl (centres unmarked) [Compound 1-18, [3-(4-{4-[1-(2-Chloro-phenyl)-ethoxycarbonylamino]-3-methyl-isoxazol-5-yl}-benzylsulfanyl)-phenyl]-acetic acid]	< 300
Cc1noc(-c2ccc(Cc3ccccc3CC(=O)O)cc2)c1NC(=O)OC(C)c1ccccc1Cl (centres unmarked) [Compound 1-22, [2-(4-{4-[1-(2-Chloro-phenyl)-ethoxycarbonylamino]-3-methyl-isoxazol-5-yl}-benzyl)-phenyl]-acetic acid]	< 300
Cc1noc(-c2ccc(-c3ccc(CC(=O)O)cc3)cc2)c1NC(=O)OC(C)Cc1ccccc1 (centres unmarked) [Compound 1-29, {4′-[3-Methyl-4-(1-methyl-2-phenyl-ethoxycarbonylamino)-isoxazol-5-yl]-biphenyl-4-yl}-acetic acid]	300 to 1000
Cc1noc(-c2cccc(-c3ccccc3C(=O)O)c2)c1NC(=O)OC(C)c1ccccc1Cl (centres unmarked) [Compound 1-32, 3′-{4-[1-(2-Chloro-phenyl)-ethoxycarbonylamino]-3-methyl-isoxazol-5-yl}-biphenyl-2-carboxylic acid]	300 to 1000
Cc1noc(-c2cccc(-c3ccc(C(=O)O)nc3)c2)c1NC(=O)OC(C)c1ccccc1Cl (centres unmarked) [Compound 1-34, 5-(3-{4-[1-(2-Chloro-phenyl)-ethoxycarbonylamino]-3-methyl-isoxazol-5-yl}-phenyl)-pyridine-2-carboxylic acid]	300 to 1000
Cc1noc(-c2cccc(-c3cc(C(=O)O)ccn3)c2)c1NC(=O)OC(C)c1ccccc1Cl (centres unmarked) [Compound 1-35, 2-(3-{4-[1-(2-Chloro-phenyl)-ethoxycarbonylamino]-3-methyl-isoxazol-5-yl}-phenyl)-isonicotinic acid]	300 to 1000
Cc1noc(-c2cccc(-c3cccc(C(=O)O)n3)c2)c1NC(=O)OC(C)c1ccccc1Cl (centres unmarked) [Compound 1-36, 6-(3-{4-[1-(2-Chloro-phenyl)-ethoxycarbonylamino]-3-methyl-isoxazol-5-yl}-phenyl)-pyridine-2-carboxylic acid]	300 to 1000
Cc1noc(-c2cccc(-c3cncc(C(=O)O)c3)c2)c1NC(=O)OC(C)c1ccccc1Cl (centres unmarked) [Compound 1-37, 5-(3-{4-[1-(2-Chloro-phenyl)-ethoxycarbonylamino]-3-methyl-isoxazol-5-yl}-phenyl)-nicotinic acid]	1000 to 50000
COc1ncc(CC(=O)O)cc1-c1cccc(-c2onc(C)c2NC(=O)OC(C)c2ccccc2Cl)c1 (centres unmarked) [Compound 1-38, [5-(3-{4-[1-(2-Chloro-phenyl)-ethoxycarbonylamino]-3-methyl-isoxazol-5-yl}-phenyl)-6-methoxy-pyridin-3-yl]acetic acid]	1000 to 50000
Cc1noc(-c2cccc(-c3ccc(CC(=O)O)cc3)c2)c1NC(=O)OC(C)c1ccccc1Cl (centres unmarked) [Compound 1-39, (3′-{4-[1-(2-Chloro-phenyl)-ethoxycarbonylamino]-3-methyl-isoxazol-5-yl}-biphenyl-4-yl)-acetic acid]	1000 to 50000
Cc1noc(-c2cccc(-c3ccc4c(ccn4CC(=O)O)c3)c2)c1NC(=O)OC(C)c1ccccc1Cl (centres unmarked) [Compound 1-40, [5-(3-{4-[1-(2-Chloro-phenyl)-ethoxycarbonylamino]-3-methyl-isoxazol-5-yl}-phenyl)-indol-1-yl]-acetic acid]	> 50000

SMILES	IC50 [nM]
Cc1noc(-c2cccc(-c3cncc(CC(=O)O)c3)c2)c1NC(=O)OC(C)c1ccccc1Cl (centres unmarked) [Compound 1-41, [5-(3-{4-[1-(2-Chloro-phenyl)-ethoxycarbonylamino]-3-methyl-isoxazol-5-yl}-phenyl)-pyridin-3-yl]acetic acid]	1000 to 50000
Cc1noc(-c2cccc(-c3cc(CC(=O)O)ccc3F)c2)c1NC(=O)OC(C)c1ccccc1Cl (centres unmarked) [Compound 1-42, (3′-{4-[1-(2-Chloro-phenyl)-ethoxycarbonylamino]-3-methyl-isoxazol-5-yl}-6-fluoro-biphenyl-3-yl)-acetic acid]	1000 to 50000
Cc1noc(-c2cccc(-c3ccc(F)c(CC(=O)O)c3)c2)c1NC(=O)OC(C)c1ccccc1Cl (centres unmarked) [Compound 1-43, (3′-{4-[1-(2-Chloro-phenyl)-ethoxycarbonylamino]-3-methyl-isoxazol-5-yl}-4-fluoro-biphenyl-3-yl)-acetic acid]	1000 to 50000
Cc1noc(-c2cccc(-c3ccccc3CC(=O)O)c2)c1NC(=O)OC(C)c1ccccc1Cl (centres unmarked) [Compound 1-44, (3′-{4-[1-(2-Chloro-phenyl)-ethoxycarbonylamino]-3-methyl-isoxazol-5-yl}-biphenyl-2-yl)-acetic acid]	1000 to 50000
Cc1noc(-c2cccc(C3CCC(C(=O)O)CC3)c2)c1NC(=O)OC(C)c1ccccc1Cl (centres unmarked) [Compound 1-46, 4-(3-{4-[1-(2-Chloro-phenyl)-ethoxycarbonylamino]-3-methyl-isoxazol-5-yl}-phenyl)-cyclohexanecarboxylic acid]	< 300
CCOC(=O)Cc1ccc(-c2ccc(-c3onc(C)c3NC(=O)OC(C)c3ccccc3F)cn2)cc1 (centres unmarked) [Compound 1-47]	300 to 1000
Cc1noc(-c2ccc(-c3ccccc3C(=O)O)cc2)c1NC(=O)OC(C)c1ccccc1Cl (centres unmarked) [Compound 1-52, 4′-{4-[1-(2-Chloro-phenyl)-ethoxycarbonylamino]-3-methyl-isoxazol-5-yl}-biphenyl-2-carboxylic acid]	1000 to 50000
Cc1noc(-c2ccc(-c3cncc(C(=O)O)c3)cc2)c1NC(=O)OC(C)c1ccccc1Cl (centres unmarked) [Compound 1-55, 5-(4-{4-[1-(2-Chloro-phenyl)-ethoxycarbonylamino]-3-methyl-isoxazol-5-yl}-phenyl)-nicotinic acid]	< 300
CCOC(=O)C(C)c1ccc(-c2ccc(-c3onc(C)c3NC(=O)OC(C)c3ccccc3Cl)cc2)cc1 (centres unmarked) [Compound 1-70, 2-(4′-{4-[1-(2-Chloro-phenyl)-ethoxycarbonylamino]-3-methyl-isoxazol-5-yl}-biphenyl-4-yl)-propionic acid ethyl ester]	< 300
Cc1noc(-c2ccc(-c3ccc(C(C)(C)C(=O)O)cc3)cc2)c1NC(=O)OC(C)c1ccccc1Cl (centres unmarked) [Compound 1-72, 2-(4′-{4-[1-(2-Chloro-phenyl)-ethoxycarbonylamino]-3-methyl-isoxazol-5-yl}-biphenyl-4-yl)-2-methyl-propionic acid]	< 300
Cc1noc(-c2ccc(-c3ccc(CC(=O)O)cc3)cn2)c1NC(=O)OC(C)c1ccccc1Cl (centres unmarked) [Compound 1-73]	< 300
Cc1noc(-c2ccc(-c3ccc(CCCC(=O)O)cc3)cc2)c1NC(=O)OC(C)c1ccccc1Cl (centres unmarked) [Compound 1-75, 4-(4′-{4-[1-(2-Chloro-phenyl)-ethoxycarbonylamino]-3-methyl-isoxazol-5-yl}-biphenyl-4-yl)-butyric acid]	< 300
Cc1noc(-c2ccc(Cc3cc(CC(=O)O)ccc3F)cc2)c1NC(=O)O[C@H](C)c1ccccc1F [Compound 1-82, [4-Fluoro-3-(4-{4-[(R)-1-(2-fluoro-phenyl)-ethoxycarbonylamino]-3-methyl-isoxazol-5-yl}-benzyl)-phenyl]-acetic acid]	300 to 1000
CCOC(=O)Cc1ccc(Oc2ccc(-c3onc(C)c3NC(=O)O[C@H](C)c3ccccc3F)cc2)cc1 [Compound 1-83, [4-(4-{4-[(R)-1-(2-Fluoro-phenyl)-ethoxycarbonylamino]-3-methyl-isoxazol-5-yl}-phenoxy)-phenyl]-acetic acid ethyl ester]	300 to 1000
Cc1noc(-c2ccc(-c3ccc(CC(=O)O)cc3)cc2)c1NC(=O)OC(C)c1c(Cl)cccc1Cl (centres unmarked) [Compound 1-101, (4′-{4-[1-(2,6-Dichloro-phenyl)-ethoxycarbonylamino]-3-methyl-isoxazol-5-yl}-biphenyl-4-yl)-acetic acid]	1000 to 50000
Cc1noc(-c2ccc(OCc3ccc(C(=O)O)cc3)cc2)c1NC(=O)O[C@H](C)c1ccccc1F [Compound 1-104, 4-(4-{4-[(R)-1-(2-Fluoro-phenyl)-ethoxycarbonylamino]-3-methyl-isoxazol-5-yl}-phenoxymethyl)-benzoic acid]	1000 to 50000
